Patent US20160296536A1, “Administration of Glucocorticoid Steroids to Livestock” (Animal Biotech, LLC, priority 2015, published 2016)

Columns and labels:
[1] = Example 2: body mass, daily gain, feed intake and gain-to-feed of weaned gilts; format: in vivo, piglets; conditions: weaned pigs; 0.2 mg/kg intramuscular
Method: In this test, eighteen gilts (of commercially relevant genetics) were weaned at 23±2 days of age. These were housed in floor pens (3 pigs per pen), and assigned to 3 treatments: (1) unweaned suckling that received saline but no cortisol agonist (UWS), (2) weaning that received only saline (WS), and (3) weaning that received the cortisol agonist (WC). The piglets of Group (3) received a cortisol agonist (0.2 mg dexamethasone per kg of body mass) via intramuscular injection on the day before commencing weaning, and day 3 post-weaning. Those of Groups (1) and (2) received instead only a saline solution intra-muscular injection at the same time intervals. Body mass (BW) was monitored daily, and average daily mass gain (ADG) and mass of feed intake (ADFI) were measured and/or estimated for the course of the study. […] Data was analyzed using mixed procedures in SAS (PROC MIXED). Repeated measure analysis of variance was used for the parameters that were measured over time.

[2] = Example 1: body weight and feed efficiency of piglets treated before weaning; format: in vivo; conditions: for improvement of (average) body weight: gilts (female pigs), intramuscular; for improvement of (average) body weight / higher body weight relative to control animals: P<0.01; for higher body weight than the controls at day 35 of the study: P<0.05; for higher body weight relative to control animals: MET fed orally one week before and 24 hours before weaning
Text: (§1) In a study, a total of 64 piglets (32 gilts [females] and 32 barrows [castrated males]) with initial body weight (BW) of 4.8±0.7 Kg were assigned to four treatments. Treatments were in a 4×2 factorial arrangement with a completely randomized design with two main factors: (I) control (Con), two levels of cortisol agonist (Dexamethasone; DEX; subdivided into 2 dosage levels: DEXA and DEXB), or cortisol antagonist (Metyrapone; MET), and (II) gender (gilt vs. barrow). See Table at FIG. 9, for a summary of the list of the treatments, drug dosage, and number of the animals per treatment. Dexamethasone was injected intramuscular at dosages shown, while Metyrapone was mixed with applesauce and fed to the animals with a syringe. The study lasted for 5 weeks. It began one week before weaning (14-day old piglets), and continued 4 weeks after the weaning. Pigs were weaned at the age of 21-days. Piglets received the treatments either orally via diet or by intra-muscular injection one week before and again 24 hours before weaning. Blood samples were collected by venipuncture of the jugular vein on day 14, 20, 21, 22, 23, 24, 26, 28, and 35 of age. Serum cortisol was determined using a commercial kit. Feed intake, average daily gain, feed efficiency, and mortality/morbidity was determined. Body weights (body mass) of the animals were measured on a daily basis for a week after weaning, and then on a weekly basis until the end of the study. See, FIGS. 2 and 3.

[3] = Example 1: serum cortisol in piglet blood samples (commercial kit); format: in vivo, piglets; conditions: 24 h after weaning; P>0.05
Text: as §1, with “Blood samples were collected by venipuncture of the jugular vein on day 14, 20, 21, 22, 23, 24, 26, 28, and 35 of age.” left out, “See, FIGS. 2 and 3.” left out

Row | Compound | effect on ADFI (mass of feed intake) [1] | effect on ADG (average daily mass gain) [1] | effect on body weight ([2]; barrows, anti-inflammatory dose, P>0.05) | improvement of (average) body weight ([2]; DEXA dose (anti-inflammatory)) | improvement of (average) body weight ([2]; DEXB dose (immunosuppressive)) | improvement of (average) body weight ([2]; DEXB dose (immunosuppressive), listed as dexamethasone) | higher body weight than the controls at day 35 of the study ([2]; gilts, DEXA dose, day 35) | higher body weight than the controls at day 35 of the study ([2]; gilts, DEXB dose, day 35) | effect on serum cortisol levels [3] | increase of average body weight of the piglets ([2]; all piglets, average over the course of the study) | higher body weight relative to control animals ([2]; barrows) | effect on body weight of piglets at day 35 of the study ([2]; day 35) | higher body weight relative to control animals ([2]; gilts)
1 | C[C@@H]1C[C@H]2[C@@H]3CCC4=CC(=O)C=C[C@]4(C)[C@@]3(F)[C@@H](O)C[C@]2(C)[C@@]1(O)C(=O)CO [Dexamethasone] | no effect | no effect | no effect | 9.3% | 4.1% | 4.4% | 13% | 12% | – | – | – | – | –
2 | CC(C)(C(=O)c1cccnc1)c1cccnc1 [MET, Metyrapone] | – | – | – | – | – | – | – | – | Neither MET nor DEX had an effect | 3.4% | 3% | no effect | 4%
